Experiment in all cases: relative viability (nuclei count vs DMSO), 5 days (fraction); higher = more cells survive
Compound in the assay “Sulindac + Olaparib”: CC1=C(CC(=O)O)c2cc(F)ccc2/C1=C\c1ccc([S+](C)[O-])cc1 [Sulindac] + O=C(c1cc(Cc2n[nH]c(=O)c3ccccc23)ccc1F)N1CCN(C(=O)C2CC2)CC1 [Olaparib] (partner 8 µM)
Summed up:
(§1)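 Lung cancer cell lines were seeded in 1536-well plates and dosed by pin tool the next day, with either a single drug or a fixed anchor-drug dose combined with five library-drug doses (not always all listed) spaced in √10 steps. Five days later, one step fixed the cells and stained their nuclei (final 0.05% Triton X-100, 1% formaldehyde, 1 ug/ml Hoechst), and nuclei were counted on 4× images. Relative viability is the nuclei count in treated wells divided by the count in vehicle wells, and each value is the median of duplicate plates.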

Compound in assay [1]: CN[C@@H]1C[C@H]2O[C@@](C)([C@@H]1OC)n1c3ccccc3c3c4c(c5c6ccccc6n2c5c31)C(=O)NC4 [Staurosporine] + CC(=O)c1c(C)c2cnc(Nc3ccc(N4CCNCC4)cn3)nc2n(C2CCCC2)c1=O [Palbociclib] (partner 0.5 µM)
Summed up: as §1

Compound in assay [2]: CN[C@@H]1C[C@H]2O[C@@](C)([C@@H]1OC)n1c3ccccc3c3c4c(c5c6ccccc6n2c5c31)C(=O)NC4 [Staurosporine] + COc1cc2c(Oc3ccc(NC(=O)C4(C(=O)Nc5ccc(F)cc5)CC4)cc3F)ccnc2cc1OCCCN1CCOCC1 [Foretinib] (partner 0.25 µM)
Summed up: as §1

Compound in assay [3]: O=c1[nH]cc(F)c(=O)[nH]1 [5-Fluorouracil] + Nc1ncn([C@H]2C[C@H](O)[C@@H](CO)O2)c(=O)n1 [Decitabine] (partner 2 µM)
A digest of the protocol: as §1

For the cell line NCI-H1755, the relative viability with Sulindac + Olaparib (first compound 0.08 µM) was 0.888; with Sulindac + Olaparib (first compound 0.253 µM) it was 0.952; with Sulindac + Olaparib (first compound 0.8 µM), 0.829; with Sulindac + Olaparib (first compound 2.53 µM), 0.85; with Sulindac + Olaparib (first compound 8 µM) it was 0.991; in assay [1] (first compound 0.005 µM), 0.395. Moreover, the relative viability in assay [1] (first compound 0.01581 µM) amounted to 0.339; in assay [1] (first compound 0.05 µM), 0.263; in assay [1] (first compound 0.1581 µM), 0.253; in assay [1] (first compound 0.5 µM) it was 0.247; in assay [2] (first compound 0.005 µM), 0.729; in assay [2] (first compound 0.01581 µM) it was 0.471. Moreover, the relative viability in assay [2] (first compound 0.05 µM) was found to be 0.261; in assay [2] (first compound 0.1581 µM), 0.189; in assay [2] (first compound 0.5 µM), 0.164; in assay [3] (first compound 0.02 µM), 0.747; in assay [3] (first compound 0.2 µM) it was 0.616; in assay [3] (first compound 0.6325 µM), 0.433. The relative viability in assay [3] (first compound 2 µM) was 0.394.

On to NCI-H1793, for which the relative viability with Sulindac + Olaparib (first compound 0.08 µM) was 0.963; in the assay with Sulindac + Olaparib (first compound 0.253 µM) it was 0.934; with Sulindac + Olaparib (first compound 2.53 µM) it was 0.973; with Sulindac + Olaparib (first compound 8 µM), 1.08; in assay [1] (first compound 0.005 µM) it was 0.446; in assay [1] (first compound 0.05 µM), 0.314. For the same cell line, the relative viability came to 0.191 in assay [1] (first compound 0.1581 µM); 0.166 in assay [1] (first compound 0.5 µM); 0.784 in assay [2] (first compound 0.005 µM); 0.474 in assay [2] (first compound 0.05 µM); 0.217 in assay [2] (first compound 0.1581 µM); 0.353 in assay [2] (first compound 0.5 µM). Moreover, the relative viability came to 0.617 in assay [3] (first compound 0.02 µM), 0.469 in assay [3] (first compound 0.2 µM), 0.487 in assay [3] (first compound 0.6325 µM) and 0.557 in assay [3] (first compound 2 µM).

NCI-H1915: the relative viability turned out to be 0.241 with Sulindac + Olaparib (first compound 0.08 µM); 0.266 with Sulindac + Olaparib (first compound 0.253 µM); 0.245 with Sulindac + Olaparib (first compound 0.8 µM); 0.254 with Sulindac + Olaparib (first compound 2.53 µM); 0.264 with Sulindac + Olaparib (first compound 8 µM); 0.379 in assay [1] (first compound 0.005 µM). For the same cell line, the relative viability in assay [1] (first compound 0.01581 µM) came to 0.323; in assay [1] (first compound 0.05 µM), 0.237; in assay [1] (first compound 0.1581 µM) it was 0.175; in assay [1] (first compound 0.5 µM), 0.109; in assay [2] (first compound 0.01581 µM) it was 0.542; in assay [2] (first compound 0.05 µM), 0.552. Also, the relative viability amounted to 0.283 in assay [2] (first compound 0.1581 µM); 0.278 in assay [2] (first compound 0.5 µM); 0.248 in assay [3] (first compound 0.02 µM); 0.272 in assay [3] (first compound 0.2 µM); 0.278 in assay [3] (first compound 0.6325 µM); 0.256 in assay [3] (first compound 2 µM).

On to NCI-H1944, for which the relative viability with Sulindac + Olaparib (first compound 0.08 µM) amounted to 0.433; in the assay with Sulindac + Olaparib (first compound 0.253 µM), 0.404; in the assay with Sulindac + Olaparib (first compound 0.8 µM), 0.302; with Sulindac + Olaparib (first compound 2.53 µM) it was 0.438; with Sulindac + Olaparib (first compound 8 µM), 0.42; in assay [1] (first compound 0.005 µM), 0.319. In addition, the relative viability in assay [1] (first compound 0.01581 µM) stood at 0.242; in assay [1] (first compound 0.05 µM) it was 0.223; in assay [1] (first compound 0.1581 µM), 0.203; in assay [1] (first compound 0.5 µM) it was 0.204; in assay [2] (first compound 0.005 µM) it was 0.756; in assay [2] (first compound 0.05 µM), 0.431. Besides, the relative viability came to 0.39 in assay [2] (first compound 0.1581 µM); 0.251 in assay [2] (first compound 0.5 µM); 0.472 in assay [3] (first compound 0.02 µM); 0.399 in assay [3] (first compound 0.2 µM); 0.268 in assay [3] (first compound 0.6325 µM); 0.183 in assay [3] (first compound 2 µM).

Take NCI-H1975: the relative viability with Sulindac + Olaparib (first compound 0.08 µM) turned out to be 0.998; in the assay with Sulindac + Olaparib (first compound 0.253 µM) it was 0.763; with Sulindac + Olaparib (first compound 0.8 µM), 0.65; with Sulindac + Olaparib (first compound 2.53 µM) it was 0.841; in the assay with Sulindac + Olaparib (first compound 8 µM), 0.974; in assay [1] (first compound 0.005 µM), 0.16. The relative viability turned out to be 0.124 in assay [1] (first compound 0.01581 µM); 0.159 in assay [1] (first compound 0.05 µM); 0.0883 in assay [1] (first compound 0.1581 µM); 0.0924 in assay [1] (first compound 0.5 µM); 0.4 in assay [2] (first compound 0.005 µM); 0.349 in assay [2] (first compound 0.01581 µM). Besides, the relative viability in assay [2] (first compound 0.05 µM) came to 0.21; in assay [2] (first compound 0.1581 µM), 0.104; in assay [2] (first compound 0.5 µM), 0.0901; in assay [3] (first compound 0.02 µM) it was 0.449; in assay [3] (first compound 0.2 µM), 0.381; in assay [3] (first compound 0.6325 µM) it was 0.28. Also, in assay [3] (first compound 2 µM), the relative viability turned out to be 0.206.

On to NCI-H1993, for which the relative viability in the assay with Sulindac + Olaparib (first compound 0.08 µM) came out at 1.03; with Sulindac + Olaparib (first compound 0.253 µM) it was 1.11; with Sulindac + Olaparib (first compound 0.8 µM), 0.895; with Sulindac + Olaparib (first compound 2.53 µM) it was 1.05; with Sulindac + Olaparib (first compound 8 µM), 1.13; in assay [1] (first compound 0.005 µM), 0.776. In addition, the relative viability in assay [1] (first compound 0.01581 µM) came to 0.685; in assay [1] (first compound 0.05 µM), 0.526; in assay [1] (first compound 0.1581 µM), 0.395; in assay [1] (first compound 0.5 µM), 0.339; in assay [2] (first compound 0.005 µM), 0.818; in assay [2] (first compound 0.01581 µM), 0.701. The relative viability in assay [2] (first compound 0.05 µM) stood at 0.586; in assay [2] (first compound 0.1581 µM) it was 0.535; in assay [2] (first compound 0.5 µM), 0.489; in assay [3] (first compound 0.02 µM), 0.692; in assay [3] (first compound 0.2 µM), 0.595; in assay [3] (first compound 0.6325 µM) it was 0.541. In assay [3] (first compound 2 µM), the relative viability turned out to be 0.46.

Take NCI-H2009: the relative viability amounted to 0.893 with Sulindac + Olaparib (first compound 0.08 µM); 0.716 with Sulindac + Olaparib (first compound 0.253 µM); 0.679 with Sulindac + Olaparib (first compound 0.8 µM); 0.666 with Sulindac + Olaparib (first compound 2.53 µM); 0.754 with Sulindac + Olaparib (first compound 8 µM); 0.147 in assay [1] (first compound 0.005 µM). Further, the relative viability worked out at 0.159 in assay [1] (first compound 0.01581 µM); 0.13 in assay [1] (first compound 0.05 µM); 0.0987 in assay [1] (first compound 0.1581 µM); 0.0664 in assay [1] (first compound 0.5 µM); 0.527 in assay [2] (first compound 0.005 µM); 0.389 in assay [2] (first compound 0.01581 µM). Besides, the relative viability in assay [2] (first compound 0.05 µM) stood at 0.212; in assay [2] (first compound 0.1581 µM), 0.177; in assay [2] (first compound 0.5 µM) it was 0.127; in assay [3] (first compound 0.02 µM), 0.384; in assay [3] (first compound 0.2 µM), 0.404; in assay [3] (first compound 0.6325 µM), 0.372. Besides, the relative viability in assay [3] (first compound 2 µM) turned out to be 0.425.

On to NCI-H2023, for which the relative viability in the assay with Sulindac + Olaparib (first compound 0.08 µM) worked out at 0.486; in the assay with Sulindac + Olaparib (first compound 0.253 µM), 0.511; with Sulindac + Olaparib (first compound 2.53 µM), 0.441; with Sulindac + Olaparib (first compound 8 µM), 0.554; in assay [1] (first compound 0.005 µM) it was 0.234; in assay [1] (first compound 0.01581 µM), 0.186. Further, the relative viability in assay [1] (first compound 0.05 µM) is 0.0972; in assay [1] (first compound 0.1581 µM) it was 0.0704; in assay [1] (first compound 0.5 µM) it was 0.0509; in assay [2] (first compound 0.005 µM), 0.526; in assay [2] (first compound 0.05 µM) it was 0.174; in assay [2] (first compound 0.1581 µM) it was 0.107. The relative viability in assay [2] (first compound 0.5 µM) is 0.0611; in assay [3] (first compound 0.02 µM), 0.271; in assay [3] (first compound 0.2 µM), 0.141; in assay [3] (first compound 0.6325 µM), 0.106; in assay [3] (first compound 2 µM), 0.0886.

Values taken from the supplement of paper PMC10307832.
